# Key:
# bone-marrow cells = experiment: Micronucleus test in rats (bone-marrow cells); assay type: in vivo, rats (Crl:CD(SD)); settings: rats, 1000 mg/kg and 2000 mg/kg once daily for 3 days
# Experimental: Combination Assay of Micronucleus Test and Comet Assay in Rats […] Bone-marrow smear for micronucleus analysis was prepared as follows. Femur was cut at both ends, and washed with fetal bovine serum (FBS) in a centrifuging tube, and the obtained bone-marrow fluid was centrifuged for 5 min at room temperature. The supernatant was removed, and the cell sediment was suspended in the remaining small amount of the supernatant. A part of the suspension was dropped on a glass slide, and a cover glass was placed thereon to give a bone-marrow smear. The smear was dried well, and fixed with methanol for 5 min. The bone-marrow smear of negative control, that of treatment groups as well as the previously prepared bone-marrow smear of positive control group were encoded, and observed by the blind method. An acridine orange solution (40 μg/mL) was dropped (several drops) to the smear just before observation, and a cover glass was placed thereon. […] In addition, as an index of growth inhibitory effect on bone-marrow cell, total of 500 erythrocytes [immature erythrocytes+mature erythrocytes (ME)] per individual were observed, and immature erythrocyte rate (IE %) relative to the total number of erythrocytes was calculated.
# [1] = tested on: acetylated tubulin in brain (hippocampus); experiment: Increase in acetylated tubulin in brain (hippocampus ELISA); assay type: in vivo, C57BL/6J mouse; settings: mouse hippocampus, oral 10 mg/kg, 4 h after administration, vs vehicle
# Experimental: Increase in Acetylated Tubulin in Brain
# A drug was suspended in 0.5% methyl cellulose to prepare a suspension for administration, having a concentration shown in Table 3. The suspension was orally administered into 8 to […] male C57BL/6J mouse, and after the passage of the time shown in Table 3, the brain was taken out, and hippocampus was obtained. The hippocampus was homogenized under RIPA extract (Wako) to which protease inhibitor (Thermo) and phosphatase inhibitor (Thermo) were added, and centrifuged in 15,000 g for 15 min to prepare a protein extract. The acetylated tubulin and total tubulin in the extract were detected by the following ELISA method. Tubulin antibody (Sigma) was immobilized on 96-well plate (Microlite2+, Thermo), and the plate was stored at 4° C. […] The plate was washed, HRP substrate was added thereto, and the luminescence was measured using a plate reader. The acetylated tubulin and total tubulin were quantified from logistics curve based on dilution series using the mouse hippocampus tissue extract, and the acetylated tubulin relative to total tubulin was calculated, and evaluated as an relative tubulin acetylation level. […] After F test for vehicle group and drug group, the significant difference between the two groups was analyzed by Student t-test or Welch test (indicated as * p<0.05, ** p<0.01). […]
smiles,measurement,setting,value
"O=C1c2cc(-c3nnc(C(F)F)o3)cnc2CN1[C@@H]1CCCC[C@H]1NC(=O)C(F)(F)C(F)(F)F [Example 489, N-((1R,2R)-2-(3-(5-(difluoromethyl)-1,3,4-oxadiazol-2-yl)-5-oxo-5,7-dihydro-6H-pyrrolo[3,4-b]pyridin-6-yl)cyclohexyl)-2,2,3,3,3-pentafluoropropanamide]","genotoxic potential (judgement, micronucleus test and comet assay combined)",bone-marrow cells,negative
same,micronucleus formation in bone-marrow cell,bone-marrow cells,not induced
same,relative tubulin acetylation level (acetylated tubulin relative to total tubulin),[1],increase in significant tubulin acetylation level was observed

# — patent publication US10435399B2, “HDAC6 inhibitory heterocyclic compound” (TAKEDA PHARMACEUTICAL COMPANY LIMITED, priority 2017, dated 2019)
